Measurements published in ChEMBL document CHEMBL1151277, “Sesquiterpene chromones from Ferula fukanensis and their nitric oxide production inhibitory effects” (J Nat Prod, 2005).
≈ marks a conversion by molar mass, not a printed value.

How the values were obtained:
RAW264.7 [1] = experiment: Inhibition of LPS and IFN-gamma-induced nitric oxide production in mouse RAW264.7 cells after 16 hrs by Griess assay; type: functional, cell-based; settings: RAW264.7, 16 h
RAW264.7 [2] = experiment: Inhibition of LPS and IFN-gamma-induced iNOS mRNA expression in mouse RAW264.7 cells for 8 hrs by RT-PCR analysis; type: functional, cell-based

Structure (SMILES) | IC50 (RAW264.7 [1]) [µg/mL] | Activity (RAW264.7 [2])
CC(C)=CCC/C(C)=C/CC[C@]1(C)Oc2oc3cc(O)ccc3c(=O)c2[C@H]1C | 4.1 (≈ 10.7 µM) | 
CC(C)=CC(=O)C/C(C)=C/CC[C@]1(C)Oc2oc3cc(O)ccc3c(=O)c2[C@H]1C (relative stereo) [FUKANEFUROCHROMONE A] | 9.8 (≈ 24.7 µM) | 
CC(C)=CC(=O)C/C(C)=C/CC[C@@]1(C)Oc2oc3cc(O)ccc3c(=O)c2[C@H]1C (relative stereo) [FUKANEFUROCHROMONE B] | 8.9 (≈ 22.4 µM) | 
CC(C)=CC(=O)/C=C(\C)CCC[C@]1(C)Oc2oc3cc(O)ccc3c(=O)c2[C@H]1C (relative stereo) [FUKANEFUROCHROMONE C] | 11.5 (≈ 29 µM) | 
CC(C)=CC(=O)/C=C(/C)CCC[C@]1(C)Oc2oc3cc(O)ccc3c(=O)c2[C@H]1C (relative stereo) [FUKANEFUROCHROMONE D] | 9.5 (≈ 24 µM) | Dose-dependent effect
